The source of these data is patent US11352322B2, “Cyclopropyl-amide compounds as dual LSD1/HDAC inhibitors” (Jubilant Epicore LLC, priority 2016, dated 2022).

A short description of data set [1]: Metabolic stability in liver microsomes, MLM. Conditions: 1 μM, NADPH. Background: Microsomes from liver hold many membrane-bound enzymes, among them those of drug oxidation.
Protocol: (§1) The microsomal suspension was prepared by adding liver microsomes to 100 mM potassium phosphate buffer (pH7.4) to give a final protein concentration of 0.5 mg/mL. The stock solution of NCE (10 mM in DMSO) was added to the microsomes to provide a final concentration of 1 μM. […] Samples were vortexed and centrifuged at 5,000 rpm for 10 min to remove proteins. Supernatant were analyzed on LC-MS/MS.
In the next data set the target is LSD1 (Homo sapiens (Human), UniProt O60341). The experiment in a line: TR-FRET Assay for LSD1. Conditions: read-out: LSD1 IC50. For orientation: In TR-FRET formats the signal depends on donor and acceptor labels being close together.
Data set [2] can be described thus: Metabolic stability in liver microsomes, HLM. Conditions: 1 μM, NADPH.
Protocol: as §1
The subject of the next data set is MM1S. As to the kind of experiment: Anticancer activity: Alamar Blue assay, MM1S. The class given is cell-based. Conditions: Homo sapiens, MM1.S, read-out: MM1S EC50.
The target in data set [3] is HDAC6 human recombinant enzyme (Homo sapiens (Human), UniProt Q9UBN7). As to the kind of experiment: Histone Deacetylase Assay (BPS Biosciences), HDAC6. The class given is biochemical. The text has this:
Histone Deacetylase Assay (BPS Biosciences)
Histone deacetylase assay was done as per manufacturer's instructions.

Structures can show the parent of a compound that is named as a salt. Where two headings read alike, the source gives them in different places. A value given as a limit tells only on which side of the number the result lay.

HDAC6 human recombinant enzyme, sequence (Q9UBN7 whole entry): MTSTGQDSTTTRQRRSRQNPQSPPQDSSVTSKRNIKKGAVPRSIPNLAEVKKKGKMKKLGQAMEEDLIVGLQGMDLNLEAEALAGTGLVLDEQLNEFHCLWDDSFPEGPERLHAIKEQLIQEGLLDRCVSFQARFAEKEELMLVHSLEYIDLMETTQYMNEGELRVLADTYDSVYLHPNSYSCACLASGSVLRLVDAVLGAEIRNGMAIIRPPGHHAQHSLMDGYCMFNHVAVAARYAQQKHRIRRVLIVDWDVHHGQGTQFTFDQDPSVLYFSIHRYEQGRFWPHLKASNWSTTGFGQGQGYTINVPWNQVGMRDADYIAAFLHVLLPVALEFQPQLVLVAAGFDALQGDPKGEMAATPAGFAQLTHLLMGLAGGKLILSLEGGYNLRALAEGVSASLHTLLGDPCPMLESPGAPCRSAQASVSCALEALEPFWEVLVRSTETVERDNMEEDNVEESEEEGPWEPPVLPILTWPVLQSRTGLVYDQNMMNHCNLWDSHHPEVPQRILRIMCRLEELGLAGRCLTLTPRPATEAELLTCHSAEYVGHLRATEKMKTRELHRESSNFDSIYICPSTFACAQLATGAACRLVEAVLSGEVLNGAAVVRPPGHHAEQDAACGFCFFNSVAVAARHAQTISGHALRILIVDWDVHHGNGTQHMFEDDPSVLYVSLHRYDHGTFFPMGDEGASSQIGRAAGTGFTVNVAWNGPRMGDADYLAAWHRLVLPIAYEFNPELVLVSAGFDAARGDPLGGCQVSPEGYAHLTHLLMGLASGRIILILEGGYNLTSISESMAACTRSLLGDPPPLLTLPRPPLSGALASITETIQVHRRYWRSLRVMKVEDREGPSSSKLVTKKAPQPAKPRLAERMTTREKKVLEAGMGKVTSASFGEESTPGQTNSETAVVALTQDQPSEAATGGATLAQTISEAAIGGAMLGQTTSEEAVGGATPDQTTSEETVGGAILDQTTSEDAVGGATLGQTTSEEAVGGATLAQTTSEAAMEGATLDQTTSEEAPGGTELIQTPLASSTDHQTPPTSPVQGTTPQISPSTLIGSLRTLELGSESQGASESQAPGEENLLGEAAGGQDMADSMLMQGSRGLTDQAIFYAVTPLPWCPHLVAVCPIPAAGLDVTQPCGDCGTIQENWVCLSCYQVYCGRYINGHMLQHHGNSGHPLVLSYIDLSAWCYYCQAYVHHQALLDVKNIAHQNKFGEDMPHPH
Protocol for LSD1: TR-FRET Assay for LSD1 (Perkin Elmer)
Tranylcypromine (TCP), LSD1 inhibitor was procured from Selleckchem. […] Stop Solution containing 300 μM tranylcypromine in 1× LANCE Detection Buffer was added to the wells and incubated for 5 min at RT. Then, Detection mix containing 2 nM Eu-Ab and 50 nM ULight-Streptavidin in 1× LANCE Detection Buffer was prepared and added to the reaction mix. This mixture was incubated for 1 hour at room temperature.
Protocol for MM1S: Cells were seeded at 5000 cells/per well in 96-well tissue culture plate and incubated at 37° C./5% CO2. After 16-24 hours, fresh media was added to the wells. Compounds were then (1% DMSO conc.) added to the cells at 10 concentrations ranging from 10-0.0005 uM prepared in 3-fold serial dilutions. Cells were incubated for 68-72 h at 37° C./5% CO2. Alamar Blue™ reagent was added and incubated for 1-3 hours at 37° C./5% CO2. Plates were read on fluorescence reader at 540 nm excitation, 590 nm emission wave lengths.

On to `O=C(NO)c1ccc(CNC2CC2c2ccccc2)cc1` (stereo not drawn) [Example 28, N-hydroxy-4-(((2-phenylcyclopropyl)amino)methyl)benzamide TFA Salt], for which the “Metabolic stability MLM % remaining in 30 min” value in data set [1] worked out at 35%. Moreover, the IC50 (as a rule, the concentration at which inhibition is half-maximal) at LSD1 came to 23 nM. Also, the “Metabolic stability HLM % remaining in 30 min” value in data set [2] came to 73%.

Regarding `O=C(NO)c1ccc(CCCN2CCC(CNC3CC3c3ccc(F)c(F)c3)CC2)cc1` (stereo not drawn) [Example 50, 4-(3-(4-(((2-(3,4-difluorophenyl)cyclopropyl)amino)methyl)piperidin-1-yl)propyl)-N-hydroxybenzamide TFA Salt], in the data set on MM1S, the EC50 (commonly the midpoint of the concentration-response curve) worked out at 35 nM. Moreover, in data set [1], the “Metabolic stability MLM % remaining in 30 min” value was found to be 80%. Also, the IC50 on LSD1 was 29 nM. Moreover, the “Metabolic stability HLM % remaining in 30 min” value in data set [2] was found to be 86%.

For the compound `O=C(NO)c1ccc(OCCN2CCC(CNC3CC3c3ccc(F)cc3)CC2)nc1` (stereo not drawn) [Example 96, 6-(2-(4-(((2-(4-fluorophenyl)cyclopropyl)amino)methyl)piperidin-1-yl)ethoxy)-N-hydroxynicotinamide TFA Salt], the EC50 with MM1S was > 10000 nM. In data set [1], the “Metabolic stability MLM % remaining in 30 min” value was determined as 89%. The half-inhibitory concentration (IC50) on LSD1 came to 22 nM. In addition, in data set [2], the “Metabolic stability HLM % remaining in 30 min” value worked out at 93%.

On to `O=C(NO)c1ccc(CCCN2CCC(CNC3CC3c3ccc(C(=O)N4CCCCC4)cc3)CC2)cc1` (stereo not drawn) [Example 54, N-hydroxy-4-(3-(4-(((2-(4-(piperidine-1-carbonyl)phenyl)cyclopropyl)amino)methyl)piperidin-1-yl)propyl)benzamide TFA Salt], for which the “Metabolic stability MLM % remaining in 30 min” value in data set [1] is on record as 72%. Moreover, on LSD1, the IC50 worked out at 23 nM. In addition, in data set [2], the “Metabolic stability HLM % remaining in 30 min” value is given as 65%.

Regarding `O=C(NO)c1ccc(/C=C/C(=O)N2CCC(CNC3CC3c3ccccc3)CC2)cc1` (stereo not drawn) [Example 114, (E)-N-hydroxy-4-(3-oxo-3-(4-(((2-phenylcyclopropyl)amino)methyl)piperidin-1-yl)prop-1-en-1-yl)benzamide TFA Salt], the IC50 in data set [3] turned out to be 68 nM. Also, the concentration giving a half-maximal response (EC50) in the data set on MM1S was found to be 44 nM. The “Metabolic stability MLM % remaining in 30 min” value in data set [1] was determined as 56%. Besides, the “Metabolic stability HLM % remaining in 30 min” value in data set [2] was found to be 83%.

For `O=C(NO)c1ccc2c(c1)CN(C(=O)CCCNC1CC1c1ccc(F)cc1)CC2` (stereo not drawn) [Example 107, 2-(4-((2-(4-fluorophenyl)cyclopropyl)amino)butanoyl)-N-hydroxy-1,2,3,4-tetrahydroisoquinoline-7-carboxamide TFA Salt], the IC50 in data set [3] came to 85 nM. In addition, in the data set with MM1S, the EC50 amounted to 78 nM. In addition, the “Metabolic stability MLM % remaining in 30 min” value in data set [1] is 67%. The “Metabolic stability HLM % remaining in 30 min” value in data set [2] is on record as 83%.

For the compound `CN(CC1CCN(CCCc2ccc(C(=O)NO)cc2)CC1)C1CC1c1ccccc1` (stereo not drawn) [Example 45, N-hydroxy-4-(3-(4-((methyl (2-phenylcyclopropyl)amino)methyl)piperidin-1-yl)propyl) benzamide TFA Salt], in the data set on MM1S (MM1S cells), the concentration giving a half-maximal response (EC50) worked out at 48 nM. For the same compound, the IC50 at LSD1 was 465 nM.

Turning to `O=C(NO)c1ccc(CCCN2CCC(CNC3CC3c3ccc(C(=O)N4CCOCC4)cc3)CC2)cc1` (stereo not drawn) [Example 53, N-hydroxy-4-(3-(4-(((2-(4-(morpholine-4-carbonyl)phenyl)cyclopropyl)amino)methyl)piperidin-1-yl)propyl)benzamide TFA Salt], in data set [1], the “Metabolic stability MLM % remaining in 30 min” value turned out to be 82%. The IC50 at LSD1 turned out to be 22 nM. Also, the “Metabolic stability HLM % remaining in 30 min” value in data set [2] is recorded as 89%.

As to `O=C(NO)c1cnc(N2CCC(CN[C@@H]3C[C@H]3c3ccc(F)cc3)CC2)nc1` [Example 20, 2-(4-((((1R,2S)-2-(4-fluorophenyl)cyclopropyl)amino)methyl)piperidin-1-yl)-N-hydroxypyrimidine-5-carboxamide TFA Salt], the 50% inhibitory concentration (IC50) in data set [3] turned out to be 72 nM. The EC50 in the data set on MM1S was determined as 3 nM. The “Metabolic stability MLM % remaining in 30 min” value in data set [1] is on record as 69%. Also, in data set [2], the “Metabolic stability HLM % remaining in 30 min” value worked out at 91%.

Take `O=C(NO)c1ccc(CC(=O)N2CCC(CNC3CC3c3ccccc3)CC2)cc1` (stereo not drawn) [Example 84, N-hydroxy-4-(2-oxo-2-(4-(((2-phenylcyclopropyl)amino)methyl)piperidin-1-yl)ethyl)benzamide TFA Salt]: the IC50 in data set [3] was 45 nM. In addition, in the data set with MM1S, the EC50 was 112 nM. Also, in data set [1], the “Metabolic stability MLM % remaining in 30 min” value is 40%. Moreover, the “Metabolic stability HLM % remaining in 30 min” value in data set [2] was 78%.

As for `O=C(NO)c1cc2c(s1)CCN(C(=O)CN[C@@H]1C[C@H]1c1ccc(F)cc1)C2` [Example 103A, 5-(2-(((1R,2S)-2-(4-fluorophenyl)cyclopropyl)amino)acetyl)-N-hydroxy-4,5,6,7-tetrahydrothieno[3,2-c]pyridine-2-carboxamide TFA Salt], in data set [3], the IC50 worked out at 22 nM. The half-maximal effective concentration (EC50) in the data set with MM1S is 52 nM. For the same compound, the “Metabolic stability MLM % remaining in 30 min” value in data set [1] was 68%. Besides, in data set [2], the “Metabolic stability HLM % remaining in 30 min” value stood at 87%.

Consider `O=C(NO)c1cc2c(s1)CCN(C(=O)CNC1CC1c1ccc(F)cc1)C2` (stereo not drawn) [Example 103, 5-(2-((2-(4-fluorophenyl)cyclopropyl)amino)acetyl)-N-hydroxy-4,5,6,7-tetrahydrothieno [3,2-c]pyridine-2-carboxamide TFA Salt], for which the 50% inhibitory concentration (IC50) in data set [3] came to 41 nM. In the data set on MM1S, the 50% effective concentration (EC50) came to 45 nM. Moreover, the “Metabolic stability MLM % remaining in 30 min” value in data set [1] worked out at 53%. In addition, in data set [2], the “Metabolic stability HLM % remaining in 30 min” value was 85%.

`O=C(NO)c1ccc2c(c1)CN(C(=O)CN[C@H]1C[C@@H]1c1ccc(F)cc1)CC2` [Example 104A, 2-(2-(((1S,2R)-2-(4-fluorophenyl)cyclopropyl)amino)acetyl)-N-hydroxy-1,2,3,4-tetrahydroisoquinoline-7-carboxamide TFA Salt]: the IC50 in data set [3] was 53 nM. Moreover, the EC50 in the data set on MM1S amounted to 183 nM. The “Metabolic stability MLM % remaining in 30 min” value in data set [1] is given as 68%. The “Metabolic stability HLM % remaining in 30 min” value in data set [2] amounted to 74%.

Take `Nc1ccccc1NC(=O)c1cc2c(s1)CCN(C(=O)CNC1CC1c1ccc(F)cc1)C2` (stereo not drawn) [Example 151, N-(2-aminophenyl)-5-((2-(4-fluorophenyl)cyclopropyl)glycyl)-4,5,6,7-tetrahydrothieno[3,2-c]pyridine-2-carboxamide TFA Salt]: the IC50 in data set [3] is > 10000 nM. The EC50 in the data set on MM1S was determined as 345 nM. For the same compound, in data set [1], the “Metabolic stability MLM % remaining in 30 min” value was found to be 18%. Moreover, in data set [2], the “Metabolic stability HLM % remaining in 30 min” value turned out to be 30%.

Regarding `Nc1ccccc1NC(=O)c1ccc(CNC(=O)N2CCC(CNC3CC3c3ccc(F)cc3)CC2)cc1` (stereo not drawn) [Example 158, N-(4-((2-aminophenyl)carbamoyl)benzyl)-4-(((2-(4-fluorophenyl)cyclopropyl)amino)methyl)piperidine-1-carboxamide TFA Salt], the IC50 in data set [3] was > 10000 nM. For the same compound, in the data set with MM1S, the EC50 came out at 58 nM. For the same compound, the “Metabolic stability MLM % remaining in 30 min” value in data set [1] is reported as < 5%. In addition, the “Metabolic stability HLM % remaining in 30 min” value in data set [2] turned out to be 50%.

For `O=C(NO)c1ccc2c(c1)CN(C(=O)CN[C@@H]1C[C@H]1c1ccc(F)cc1)CC2` [Example 104B, 2-(2-(((1R,2S)-2-(4-fluorophenyl)cyclopropyl)amino)acetyl)-N-hydroxy-1,2,3,4-tetrahydroisoquinoline-7-carboxamide TFA Salt], the IC50 in data set [3] was 45 nM. For the same compound, the EC50 in the data set on MM1S came to 374 nM. Besides, in data set [1], the “Metabolic stability MLM % remaining in 30 min” value was determined as 70%. For the same compound, in data set [2], the “Metabolic stability HLM % remaining in 30 min” value is listed as 74%.

For the compound `N#Cc1ccc(-c2ccc(C3CC3NCC3CCN(CCCc4ccc(C(=O)NO)cc4)CC3)cc2)cc1` (stereo not drawn) [Example 59, 4-(3-(4-(((2-(4′-cyano-[1,1′-biphenyl]-4-yl)cyclopropyl)amino)methyl)piperidin-1-yl)propyl)-N-hydroxybenzamide TFA Salt], the “Metabolic stability MLM % remaining in 30 min” value in data set [1] is on record as 75%. Besides, the IC50 at LSD1 was found to be 32 nM. The “Metabolic stability HLM % remaining in 30 min” value in data set [2] is listed as 76%.

Turning to `Nc1ccccc1NC(=O)c1ccc2c(c1)CN(C(=O)CNC1CC1c1ccc(F)cc1)CC2` (stereo not drawn) [Example 152, N-(2-aminophenyl)-2-(2-((2-(4-fluorophenyl)cyclopropyl)amino)acetyl)-1,2,3,4-tetrahydroisoquinoline-7-carboxamide TFA Salt], in data set [3], the IC50 is > 10000 nM. In addition, in the data set on MM1S, the EC50 was determined as 566 nM. For the same compound, the “Metabolic stability MLM % remaining in 30 min” value in data set [1] amounted to 31%. Besides, in data set [2], the “Metabolic stability HLM % remaining in 30 min” value was 36%.

Take `O=C(NO)c1ccc(/C=C/C(=O)N2CCC(CN[C@@H]3C[C@H]3c3ccccc3)CC2)cc1` [Example 114A, N-hydroxy-4-((E)-3-oxo-3-(4-((((1R,2S)-2-phenylcyclopropyl)amino)methyl)piperidin-1-yl)prop-1-en-1-yl)benzamide TFA Salt]: the IC50 in data set [3] is 38 nM. Further, in the data set with MM1S, the EC50 was determined as 14 nM. Further, the “Metabolic stability MLM % remaining in 30 min” value in data set [1] came to 62%. Further, in data set [2], the “Metabolic stability HLM % remaining in 30 min” value is 67%.

`O=C(NO)c1cc2c(s1)CCN(C(=O)CCCNC1CC1c1ccc(F)cc1)C2` (stereo not drawn) [Example 105, 5-(4-((2-(4-fluorophenyl)cyclopropyl)amino)butanoyl)-N-hydroxy-4,5,6,7-tetrahydrothieno[3,2-c]pyridine-2-carboxamide TFA Salt]: the IC50 in data set [3] came to 18 nM. Besides, in the data set on MM1S, the EC50 came to 13 nM. In data set [1], the “Metabolic stability MLM % remaining in 30 min” value was 72%. Also, the “Metabolic stability HLM % remaining in 30 min” value in data set [2] is recorded as 77%.

For the compound `Nc1ccccc1NC(=O)c1ccc(CNC(=O)CNC2CC2c2ccc(F)cc2)cc1` (stereo not drawn) [Example 155, N-(2-aminophenyl)-4-((2-((2-(4-fluorophenyl)cyclopropyl)amino)acetamido)methyl)benzamide TFA Salt], in data set [3], the IC50 is > 10000 nM. In the data set on MM1S, the EC50 amounted to 42 nM. Also, the “Metabolic stability MLM % remaining in 30 min” value in data set [1] is 34%. In data set [2], the “Metabolic stability HLM % remaining in 30 min” value is listed as 46%.
